Data from US9969710B2, “Heteroaryl compounds as IRAK inhibitors and uses thereof” (Merck Patent GmbH, priority 2015, dated 2018).

Legend:
IRAK1 = target: T1, IRAK1 (Homo sapiens, UniProt P51617); test: IRAK1 enzymatic assay (ADP-Glo luminescence); type: biochemical; conditions: human recombinant His-TEV-IRAK1 (194-712), ATP 1 μM; read-out: IRAK 1 IC50
T1 construct: His-TEV-IRAK1 (194-712); His (N); TEV cleavage site (N)
Procedure, shortened: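 His-TEV-IRAK1(194-712) ([…]) preincubated 15 min RT with compounds (10 μM–0.5 nM) in 50 mM Hepes pH 7.0, 10 mM MgCl2, 2 mM DTT, 0.1% BSA. Reaction started with 1 μM ATP, 2 h RT. ADP formed read by ADP-Glo luminescence.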

IRAK4 = target: T2, IRAK4 (Homo sapiens, UniProt Q9NWZ3); test: IRAK4 enzymatic assay (ADP-Glo luminescence); type: biochemical; conditions: human recombinant His-TEV-IRAK4 (1-460), STK1-biotin peptide substrate
T2 construct: His-TEV-IRAK4 (1-460); His (N); TEV cleavage site (N)
T2 sequence (Q9NWZ3 1-460): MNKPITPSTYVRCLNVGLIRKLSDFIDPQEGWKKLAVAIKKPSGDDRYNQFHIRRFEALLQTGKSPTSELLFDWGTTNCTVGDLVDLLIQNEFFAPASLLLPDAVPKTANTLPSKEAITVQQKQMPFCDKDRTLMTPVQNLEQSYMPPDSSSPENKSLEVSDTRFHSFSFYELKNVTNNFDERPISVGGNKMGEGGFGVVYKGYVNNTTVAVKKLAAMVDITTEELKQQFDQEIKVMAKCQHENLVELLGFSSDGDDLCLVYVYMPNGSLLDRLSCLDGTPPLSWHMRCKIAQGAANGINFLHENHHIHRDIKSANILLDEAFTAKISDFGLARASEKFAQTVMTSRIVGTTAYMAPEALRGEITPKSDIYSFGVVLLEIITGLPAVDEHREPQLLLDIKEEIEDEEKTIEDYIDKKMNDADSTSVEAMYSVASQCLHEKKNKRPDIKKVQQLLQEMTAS
Procedure, shortened: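 His-TEV-IRAK4(1-460) at […] was preincubated with compound (10 μM to 0.5 nM) for 15 min at RT in 50 mM Hepes pH 7.0 with MgCl2, MnCl2, DTT, BSA and Triton. Reactions with ATP ([…]) and STK1-biotin peptide (300 nM) ran 2 h at RT. ADP formed was read by ADP-Glo luminescence.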

[1] = test system: TLR7 induced IL-6 secretion in human mononuclear cells (PBMC's); test: TLR7 induced IL-6 in human PBMC's; type: cell-based; conditions: Homo sapiens, PBMC, TLR7 specific ligand 2 uM overnight, IL-6 AlphaLISA
Procedure, shortened: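 Fresh or frozen healthy-donor PBMCs pre-treated 30 min at 37 °C with compounds (25 uM to 0.4 nM) before overnight (16-18 h) stimulation with TLR7 ligand at 2 uM. IL-6 in supernatant quantified by AlphaLISA.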

T1 sequence (P51617 194-712): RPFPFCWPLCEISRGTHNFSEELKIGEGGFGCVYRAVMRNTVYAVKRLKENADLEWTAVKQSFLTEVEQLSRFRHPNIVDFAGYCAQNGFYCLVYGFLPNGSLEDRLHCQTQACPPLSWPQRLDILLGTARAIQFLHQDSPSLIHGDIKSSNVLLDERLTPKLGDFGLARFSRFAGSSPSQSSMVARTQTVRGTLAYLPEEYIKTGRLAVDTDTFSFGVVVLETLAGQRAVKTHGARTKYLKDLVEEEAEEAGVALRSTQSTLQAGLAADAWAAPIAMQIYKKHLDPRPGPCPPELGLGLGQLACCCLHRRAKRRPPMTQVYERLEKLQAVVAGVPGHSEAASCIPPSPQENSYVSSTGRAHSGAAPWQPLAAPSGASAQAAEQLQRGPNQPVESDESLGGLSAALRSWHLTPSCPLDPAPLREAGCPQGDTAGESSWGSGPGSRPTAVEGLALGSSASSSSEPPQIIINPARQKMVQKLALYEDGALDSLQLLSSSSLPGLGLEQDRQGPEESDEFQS

Structure (SMILES)	IC50 (IRAK1) [nM]	IC50 (IRAK4) [nM]	IC50 [1] [nM]	melting point [°C]
CN1CC(c2ccc3c(c2)nc(NC(=O)c2cccc(C(F)F)c2)n3CCCO)C(C)(C)C1=O (stereo not drawn) [Compound 27, 3-Difluoromethyl-N-[1-(3-hydroxy-propyl)-5-(1,4,4-trimethyl-5-oxo-pyrrolidin-3-yl)-1H-benzoimidazol-2-yl]-benzamide]	100 to 1000	≤ 100	100 to 1000	95 to 96
CN1C(=O)CCC1(C)c1ccc2c(c1)nc(NC(=O)c1cccc(C(F)(F)F)c1)n2CCCO (stereo not drawn) [Compound 32, N-[5-(1,2-Dimethyl-5-oxo-pyrrolidin-2-yl)-1-(3-hydroxy-propyl)-1H-benzoimidazol-2-yl]-3-trifluoromethyl-benzamide]	100 to 1000	≤ 100	1000 to 10000	99 to 100
CN1CC(c2ccc3c(c2)nc(NC(=O)c2cccc(C(F)(F)F)c2)n3CCCO)C(C)(C)C1=O (stereo not drawn) [Compound 25, N-[1-(3-Hydroxy-propyl)-5-(1,4,4-trimethyl-5-oxo-pyrrolidin-3-yl)-1H-benzoimidazol-2-yl]-3-trifluoromethyl-benzamide]	≤ 100	≤ 100	100 to 1000	104 to 106
